# Results reported in ChEMBL document CHEMBL3751735, “Discovery of 2-(4-sulfonamidophenyl)-indole 3-carboxamides as potent and selective inhibitors with broad hepatitis C virus genotype activity targeting HCV NS4B” (Bioorg Med Chem Lett, 2016).
# Legend:
# Hepatitis C virus [1] = test: Antiviral activity against HCV genotype 1b Con1 bicistronic replicon infected in human Huh7 cells assessed as replicon RNA expression measured 3 days post dose by real time RT-PCR analysis; format: functional, organism-based, Hepacivirus hominis; conditions: isolate Con1, Huh-7, 72 h
# [2] = Toxicity against human HuH7 cells harboring HCV genotype 1b bicistronic replicon assessed as inhibition of GAPDH mRNA expression measured 3 days post dose by real time RT-PCR analysis; format: cell-based, Huh-7
# Hepatitis C virus [3] = test: Antiviral activity against HCV genotype 2a JFH-1 infected in human HuH7.5 cells assessed as HCV RNA expression measured 72 hrs post dose by qRT-PCR analysis; format: functional, organism-based, Hepacivirus hominis; conditions: JFH-1, Huh-7, 72 h
# Hepatitis C virus [4] = test: Antiviral activity against HCV genotype 3a S52/SG-Feo(SH) infected in human HuH7.5 cells measured 3 days post dose by Luciferase assay; format: functional, organism-based, Hepacivirus hominis; conditions: Huh-7, 72 h
# Hepatitis C virus [5] = test: Antiviral activity against HCV genotype 1a H77S bicistronic replicon infected in human Huh7 cells assessed as replicon RNA expression measured 3 days post dose by real time RT-PCR analysis; format: functional, organism-based, Hepacivirus hominis; conditions: Huh-7, 72 h
# [6] = Ratio of drug level in liver to plasma in Sprague-Dawley rat at 10 mg/kg, po measured 6 hrs post dose; format: ADME, organism-based; conditions: liver and plasma
# [7] = AUC (0 to 6 hrs) in Sprague-Dawley rat plasma at 10 mg/kg, po measured at 30 mins to 6 hrs post dose; format: ADME, organism-based; design: dose 10 mg/kg, time < 6 hr, route oral
Compound,EC50 (Hepatitis C virus [1]) [nM],IC50 at 3 days [2] [µM],EC50 (Hepatitis C virus [3]) [nM],EC50 (Hepatitis C virus [4]) [nM],EC50 (Hepatitis C virus [5]) [nM],Kp at 6 h [6],AUC(0-t) at 6 h [7] [µM·h]
Cc1cc(NS(=O)(=O)C(C)(C)C)ccc1-c1c(C(N)=O)c2cc(F)c(OC(F)F)cc2n1-c1ccccc1,2,> 10,–,–,–,–,–
CCc1cc2c(cc1F)c(C(N)=O)c(-c1ccc(NS(=O)(=O)C(C)C)cc1)n2C1CCCC1,68,> 10,–,–,–,–,–
CC(C)(C)S(=O)(=O)Nc1ccc(-c2c(C(N)=O)c3cc(F)c(OC(F)F)cc3n2C2CCCCC2)c(Cl)c1,2,> 10,28,0.2,< 1,115,2.1
Cc1cc2c(cc1F)c(C(N)=O)c(-c1ccc(NS(=O)(=O)C(C)(C)C)cc1)n2C1CCCC1,39,> 10,10,317,20,15,0.457
CCc1cc2c(cc1F)c(C(N)=O)c(-c1ccc(NS(=O)(=O)C(C)(C)C)cc1)n2C1CCCC1,7,> 10,20,115,130,27,4.12
CC(C)(C)S(=O)(=O)Nc1ccc(-c2c(C(N)=O)c3cc(F)c(OC(F)F)cc3n2C2CCCC2)cc1,5,> 10,6,20,4,47,0.382
CC(C)(C)S(=O)(=O)Nc1ccc(-c2c(C(N)=O)c3cc(F)c(OC(F)F)cc3n2C2CCCCC2)cc1F,3,> 1,–,–,–,–,–
CC(C)(C)S(=O)(=O)Nc1ccc(-c2c(C(N)=O)c3cc(F)c(OC(F)F)cc3n2-c2ccccc2)cc1F,12,> 1.1,–,–,–,–,–
CC(C)(C)S(=O)(=O)Nc1ccc(-c2c(C(N)=O)c3cc(F)c(OC(F)F)cc3n2C2CCCCC2)cc1Cl,305,> 1,–,–,–,–,–
Cc1cc(NS(=O)(=O)C(C)(C)C)ccc1-c1c(C(N)=O)c2cc(F)c(OC(F)F)cc2n1C1CCCCC1,10,> 10,24,0.5,1,62,4.96
CC(C)(C)S(=O)(=O)Nc1ccc(-c2c(C(N)=O)c3cc(F)c(OC(F)F)cc3n2C2CCCCC2)cn1,6,> 10,380,119,10,332,0.204
Cc1cc2c(cc1F)c(C(N)=O)c(-c1ccc(NS(=O)(=O)C(C)(C)C)cc1)n2C1CCOCC1,17,> 10,–,–,–,–,–
CC(C)(C)S(=O)(=O)Nc1ccc(-c2c(C(N)=O)c3c(F)cc(C(F)F)cc3n2C2CCCC2)cc1,4,> 10,–,–,–,–,–
COc1cc2c(cc1F)c(C(N)=O)c(-c1ccc(NS(=O)(=O)C(C)(C)C)cc1)n2C1CCCC1,59,> 10,–,–,–,–,–
CCc1cc2c(cc1F)c(C(N)=O)c(-c1cnc(NS(=O)(=O)C(C)(C)C)nc1)n2C1CCCCC1,2100,> 10,–,–,–,–,–
Cc1cc2c(cc1F)c(C(N)=O)c(-c1ccc(NS(=O)(=O)C(C)(C)C)cc1)n2-c1cccnc1,180,> 10,–,–,–,–,–
CC(C)c1cc2c(cc1F)c(C(N)=O)c(-c1ccc(NS(=O)(=O)C(C)(C)C)cc1)n2C1CCCC1,170,> 10,–,–,–,–,–
Cc1cc(-c2c(C(N)=O)c3cc(F)c(OC(F)F)cc3n2-c2ccccc2)ccc1NS(=O)(=O)C(C)(C)C,120,> 10,–,–,–,–,–
CCc1cc2c(cc1F)c(C(N)=O)c(-c1ccc(NS(=O)(=O)C(C)(C)C)cc1)n2C1CCCCC1,4,> 10,–,–,–,–,–
CC(C)(C)S(=O)(=O)Nc1ccc(-c2c(C(N)=O)c3cc(F)c(OC(F)F)cc3n2C2CCCC2)c(F)c1,2,> 10,6,–,10,–,0.37
